The values that follow come from patent publication US20240384268A1, “Oligonucleotides” (Hudson Institute of Medical Research, priority 2021, published 2024).

In the oligonucleotide strings, read from the 5' end, every base follows the letter of its sugar. An asterisk marks phosphorothioate; unmarked linkages are phosphodiester. Other units and linkages are bracketed, terminal groups are in braces. A string of capitals states the bases alone. d = 2'-deoxy (DNA); m = 2'-O-methyl

The series has as its target T1, TLR8 (Homo sapiens, UniProt Q9NR97).
T1 sequence (Q9NR97 27-1041): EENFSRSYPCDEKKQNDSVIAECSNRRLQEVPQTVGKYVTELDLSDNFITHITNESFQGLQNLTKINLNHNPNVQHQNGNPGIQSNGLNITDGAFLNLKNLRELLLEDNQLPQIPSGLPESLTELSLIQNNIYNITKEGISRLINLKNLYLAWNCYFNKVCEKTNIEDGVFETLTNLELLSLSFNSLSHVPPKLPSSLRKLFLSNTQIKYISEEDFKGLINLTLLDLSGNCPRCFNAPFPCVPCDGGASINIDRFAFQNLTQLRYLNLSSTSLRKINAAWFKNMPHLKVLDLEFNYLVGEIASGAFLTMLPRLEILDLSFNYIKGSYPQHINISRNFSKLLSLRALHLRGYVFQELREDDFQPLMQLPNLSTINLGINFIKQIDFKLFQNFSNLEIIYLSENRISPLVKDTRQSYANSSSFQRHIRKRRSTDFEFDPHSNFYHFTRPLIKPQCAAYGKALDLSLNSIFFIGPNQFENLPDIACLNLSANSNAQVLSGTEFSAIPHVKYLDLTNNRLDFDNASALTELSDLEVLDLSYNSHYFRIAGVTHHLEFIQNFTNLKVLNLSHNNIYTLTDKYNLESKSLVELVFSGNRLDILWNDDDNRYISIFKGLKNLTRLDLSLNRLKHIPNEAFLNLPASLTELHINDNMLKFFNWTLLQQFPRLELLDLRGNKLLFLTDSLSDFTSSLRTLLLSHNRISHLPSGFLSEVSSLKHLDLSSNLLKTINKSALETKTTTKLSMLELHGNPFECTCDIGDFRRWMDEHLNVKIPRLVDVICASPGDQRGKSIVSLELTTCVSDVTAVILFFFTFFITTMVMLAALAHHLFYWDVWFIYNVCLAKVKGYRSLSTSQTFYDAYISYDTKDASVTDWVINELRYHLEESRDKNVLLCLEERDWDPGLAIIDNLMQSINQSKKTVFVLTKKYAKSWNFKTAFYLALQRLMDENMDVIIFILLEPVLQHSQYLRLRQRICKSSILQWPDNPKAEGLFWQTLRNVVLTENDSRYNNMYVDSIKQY
As to the kind of experiment: HEK-TLR8 NF-κB-luciferase reporter, R848 or Motolimod stimulation (potentiation or inhibition). It counts as cell-based. The settings on record: for TLR8 100 nM (averaged NF-κB-Luciferase level relative to R848 condition, fold increase): ASO 100 nM; for TLR8 100 nM (averaged NF-κB-Luciferase level relative to R848 condition, fold increase) / TLR8 500 nM (averaged NF-κB-Luciferase level relative to R848 condition, fold increase): relative to R848 only; for TLR8 500 nM (averaged NF-κB-Luciferase level relative to R848 condition, fold increase): ASO 500 nM; for TLR8-500 nM: averaged NF-κB-Luciferase relative to R848: 500 nM ASO, fold increase relative to R848 without ASO (Alharbi et al., 2020). Further details: expressed in transfected cells; host or cells: 293XLhTLR8 (HEK293). A general note: A reporter such as luciferase makes a cellular process visible.

“ACTTCGTGGGGTCCTT (antisense; LNA-modified, pattern not given here) [HPRT LNA-663 V1]”: the “TLR8 100 nM (averaged NF-κB-Luciferase level relative to R848 condition, fold increase)” value came out at 0.820 and the “TLR8 500 nM (averaged NF-κB-Luciferase level relative to R848 condition, fold increase)” value is recorded as 3.672. Regarding “CCAGCAGGTCAGCAAA (antisense; LNA-modified, pattern not given here) [HPRT LNA-388 KL]”, the “TLR8 100 nM (averaged NF-κB-Luciferase level relative to R848 condition, fold increase)” value amounted to 0.412 and the “TLR8 500 nM (averaged NF-κB-Luciferase level relative to R848 condition, fold increase)” value is reported as 1.499.

“GACTATACGCGCAATA (antisense; LNA-modified, pattern not given here) [NC5 LNA PS 3-10-3]”: the “TLR8 100 nM (averaged NF-κB-Luciferase level relative to R848 condition, fold increase)” value stood at 0.777 and the “TLR8 500 nM (averaged NF-κB-Luciferase level relative to R848 condition, fold increase)” value is listed as 3.376.

Consider “CCACATCCTGTGGCTC (antisense; LNA-modified, pattern not given here) [CAMSAP1-2906 LNA V1]”, for which the “TLR8 100 nM (averaged NF-κB-Luciferase level relative to R848 condition, fold increase)” value worked out at 0.291 and the “TLR8 500 nM (averaged NF-κB-Luciferase level relative to R848 condition, fold increase)” value was determined as 0.232. For the substance “TGTCTGGAAGCTTCCT (antisense; LNA-modified, pattern not given here) [CTNN2B-808 LNA V1]”, the “TLR8 100 nM (averaged NF-κB-Luciferase level relative to R848 condition, fold increase)” value was 0.600 and the “TLR8 500 nM (averaged NF-κB-Luciferase level relative to R848 condition, fold increase)” value was 0.871. For the substance “mU*mA*mU*mU*mU*C*C*A*C*A*T*G*C*C*C*mA*mG*mU*mG*mU (mU*mA*mU*mU*mU*dC*dC*dA*dC*dA*dT*dG*dC*dC*dC*mA*mG*mU*mG*mU; antisense) [[CDKN2B-AS1]627]”, for the setting “HEK-TLR8”, the “TLR8-500 nM: averaged NF-κB-Luciferase relative to R848” value was 3.87 fold. Regarding “CTTGGCTTCGTGGAGC (antisense; LNA-modified, pattern not given here) [MB21D1-520 LNA V1]”, the “TLR8 100 nM (averaged NF-κB-Luciferase level relative to R848 condition, fold increase)” value worked out at 0.458 and the “TLR8 500 nM (averaged NF-κB-Luciferase level relative to R848 condition, fold increase)” value came to 0.594. In the case of “GTCTTCATCGGCCCTG (antisense; LNA-modified, pattern not given here) [CAMSAP1-2113 LNA V1]”, the “TLR8 100 nM (averaged NF-κB-Luciferase level relative to R848 condition, fold increase)” value is on record as 0.664 and the “TLR8 500 nM (averaged NF-κB-Luciferase level relative to R848 condition, fold increase)” value was 2.086.

With “AGGCCCTTCGCACTTC (antisense; LNA-modified, pattern not given here) [EGFR-1225 LNA V1]”, the “TLR8 100 nM (averaged NF-κB-Luciferase level relative to R848 condition, fold increase)” value stood at 0.507 and the “TLR8 500 nM (averaged NF-κB-Luciferase level relative to R848 condition, fold increase)” value stood at 0.967. For the substance “TCTTCATCGGCCCTGC (antisense; LNA-modified, pattern not given here) [CAMSAP1-2112 LNA V1]”, the “TLR8 100 nM (averaged NF-κB-Luciferase level relative to R848 condition, fold increase)” value is listed as 0.595 and the “TLR8 500 nM (averaged NF-κB-Luciferase level relative to R848 condition, fold increase)” value came to 1.393.

With “ACACTTCGTGGGGTCCTTTT (antisense; 2'-MOE modified, pattern not given here) [HPRT-663 MOE]”, the “TLR8 100 nM” value (MOE-modified ASO at 100 nM, averaged NF-κB-Luciferase relative to R848 condition (fold increase)) came out at 4.778. For the same substance, the “TLR8 500 nM” value (MOE-modified ASO at 500 nM, averaged NF-κB-Luciferase relative to R848 condition (fold increase)) stood at 6.320. For “GGTCTTGGCTTCGTGG (antisense; LNA-modified, pattern not given here) [MB21D1-523 LNA V1]”, the “TLR8 100 nM (averaged NF-κB-Luciferase level relative to R848 condition, fold increase)” value was determined as 0.616 and the “TLR8 500 nM (averaged NF-κB-Luciferase level relative to R848 condition, fold increase)” value amounted to 1.386. As to “TCCTTGCACGTGGCTT (antisense; LNA-modified, pattern not given here) [EGFR-1014 LNA V1]”, the “TLR8 100 nM (averaged NF-κB-Luciferase level relative to R848 condition, fold increase)” value was 0.491 and the “TLR8 500 nM (averaged NF-κB-Luciferase level relative to R848 condition, fold increase)” value was 0.601. In the case of “AGTGTTGAGATACTCG (antisense; LNA-modified, pattern not given here) [EGFR-3652 LNA KL]”, the “TLR8 100 nM (averaged NF-κB-Luciferase level relative to R848 condition, fold increase)” value was determined as 0.427 and the “TLR8 500 nM (averaged NF-κB-Luciferase level relative to R848 condition, fold increase)” value is recorded as 0.599. For “mA*mA*mG*mC*mA*G*T*C*T*C*C*A*T*G*T*mC*mC*mC*mA*mG (mA*mA*mG*mC*mA*dG*dT*dC*dT*dC*dC*dA*dT*dG*dT*mC*mC*mC*mA*mG; antisense) [[CDKN2B-AS1]2236]”, the “TLR8-500 nM: averaged NF-κB-Luciferase relative to R848” value (HEK-TLR8) is 2.62 fold. In the case of “TACTTTCCGAGGTGTC (antisense; LNA-modified, pattern not given here) [CAMSAP1-1739 LNA KL]”, the “TLR8 100 nM (averaged NF-κB-Luciferase level relative to R848 condition, fold increase)” value is recorded as 0.417 and the “TLR8 500 nM (averaged NF-κB-Luciferase level relative to R848 condition, fold increase)” value came out at 1.585.

Consider “TGGTCCACAACCCCTT (antisense; LNA-modified, pattern not given here) [MB21D1-697 LNA V1]”, for which the “TLR8 100 nM (averaged NF-κB-Luciferase level relative to R848 condition, fold increase)” value was determined as 0.559 and the “TLR8 500 nM (averaged NF-κB-Luciferase level relative to R848 condition, fold increase)” value came to 1.454. On to “mG*mU*mG*mU*mC*C*T*T*C*A*T*G*C*T*T*mU*mG*mG*mA*mU (GUGUCCTTCATGCTTUGGAU; antisense; sugars from the 5' end m5 d10 m5, all phosphorothioate, methylation of C not given here) [[CDKN2B-AS1]1415]”, for which, where the note is “HEK-TLR8”, the “TLR8-500 nM: averaged NF-κB-Luciferase relative to R848” value is 1.60 fold. Turning to “GGCACTTTGCCTCCTT (antisense; LNA-modified, pattern not given here) [EGFR-2859 LNA V1]”, the “TLR8 100 nM (averaged NF-κB-Luciferase level relative to R848 condition, fold increase)” value is listed as 0.652 and the “TLR8 500 nM (averaged NF-κB-Luciferase level relative to R848 condition, fold increase)” value was found to be 0.862. For the substance “CGCTTTTCTGTCTGGT (antisense; LNA-modified, pattern not given here) [CTNN2B-311 LNA KL]”, the “TLR8 100 nM (averaged NF-κB-Luciferase level relative to R848 condition, fold increase)” value was found to be 0.920 and the “TLR8 500 nM (averaged NF-κB-Luciferase level relative to R848 condition, fold increase)” value is 2.896. Consider “mG*mC*mA*mG*mU*C*T*C*C*A*T*G*T*C*C*mC*mA*mG*mG*mC (GCAGUCTCCATGTCCCAGGC; antisense; sugars from the 5' end m5 d10 m5, all phosphorothioate, methylation of C not given here) [[CDKN2B-AS1]2234]”, for which the “TLR8 potentiation of R848 sensing, 20-mer ASOs (in words)” value (HEK-TLR8, 500 nM ASO ~30 min, R848 overnight) is “weak potentiator of TLR8”. Under “HEK-TLR8”, the “TLR8-500 nM: averaged NF-κB-Luciferase relative to R848” value worked out at 2.25 fold. Consider “CATCCACCACGTCGTC (antisense; LNA-modified, pattern not given here) [EGFR-3266 LNA V1]”, for which the “TLR8 100 nM (averaged NF-κB-Luciferase level relative to R848 condition, fold increase)” value was determined as 0.778 and the “TLR8 500 nM (averaged NF-κB-Luciferase level relative to R848 condition, fold increase)” value is recorded as 2.417. On to “mC*mA*mG*mU*mG*T*T*T*T*T*A*A*T*T*T*mU*mG*mU*mA*mG (mC*mA*mG*mU*mG*dT*dT*dT*dT*dT*dA*dA*dT*dT*dT*mU*mG*mU*mA*mG; antisense) [[CDKN2B-AS1]613]”, for which, for the setting “HEK-TLR8”, the “TLR8-500 nM: averaged NF-κB-Luciferase relative to R848” value was 6.73 fold.

In the case of “GGCTCGGCTTGCCTAC (antisense; LNA-modified, pattern not given here) [CAMSAP1-5594 LNA V1]”, the “TLR8 100 nM (averaged NF-κB-Luciferase level relative to R848 condition, fold increase)” value worked out at 0.374 and the “TLR8 500 nM (averaged NF-κB-Luciferase level relative to R848 condition, fold increase)” value was 0.706. The corresponding values for “AGATTTCAGAGCAGCT (antisense; LNA-modified, pattern not given here) [EGFR-4885 LNA KL]” are 0.401 and 0.770.

In the case of “TGACAAAGATTCACTG (antisense; LNA-modified, pattern not given here) [HPRT LNA-1353 KL]”, the “TLR8 100 nM (averaged NF-κB-Luciferase level relative to R848 condition, fold increase)” value was found to be 0.633 and the “TLR8 500 nM (averaged NF-κB-Luciferase level relative to R848 condition, fold increase)” value is on record as 1.756. Take “ATGTGATGGCCTCCCA (antisense; LNA-modified, pattern not given here) [HPRT LNA-335 V1]”: the “TLR8 100 nM (averaged NF-κB-Luciferase level relative to R848 condition, fold increase)” value is 0.637 and the “TLR8 500 nM (averaged NF-κB-Luciferase level relative to R848 condition, fold increase)” value is recorded as 1.840. The corresponding values for “AATCCAACAAAGTCTG (antisense; LNA-modified, pattern not given here) [HPRT LNA-692 KL]” are 0.591 and 1.900. “TCGTGGGGTCCTTTTC (antisense; LNA-modified, pattern not given here) [HPRT LNA-660 V1]”: the “TLR8 100 nM (averaged NF-κB-Luciferase level relative to R848 condition, fold increase)” value is 0.778 and the “TLR8 500 nM (averaged NF-κB-Luciferase level relative to R848 condition, fold increase)” value stood at 2.966.
